Tests used:
[1] = Antiinflammatory activity in human THP1 cells assessed as inhibition of LPS-stimulated TNFalpha production; settings: THP-1
[2] = Ratio of IC50 for human THP1 cells assessed as inhibition of LPS-stimulated TNFalpha production to IC50 for MK2 (unknown origin); set-up: species or system THP-1
[3] = Antiinflammatory activity in human THP1 cells assessed as inhibition of LPS-stimulated TNFalpha production at […] uM; format: functional; settings: THP-1
[4] = target: MAP kinase-activated protein kinase 2 (Homo sapiens) (UniProt P49137); assay: Inhibition of MK2 (unknown origin) at 50 uM by scintillation proximity assay
MAP kinase-activated protein kinase 2 (Homo sapiens), sequence (P49137 whole entry, looked up): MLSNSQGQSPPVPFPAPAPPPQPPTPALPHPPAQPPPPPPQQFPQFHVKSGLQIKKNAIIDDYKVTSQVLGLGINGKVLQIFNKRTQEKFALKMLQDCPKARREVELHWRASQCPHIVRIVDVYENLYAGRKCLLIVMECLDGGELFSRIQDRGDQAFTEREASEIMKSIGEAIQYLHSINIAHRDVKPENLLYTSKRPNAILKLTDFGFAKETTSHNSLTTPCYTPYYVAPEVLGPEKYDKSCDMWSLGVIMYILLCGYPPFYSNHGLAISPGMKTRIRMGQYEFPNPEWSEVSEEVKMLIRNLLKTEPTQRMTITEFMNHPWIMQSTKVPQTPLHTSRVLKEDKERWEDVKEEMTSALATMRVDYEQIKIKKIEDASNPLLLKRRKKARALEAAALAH

[5] = Antiinflammatory activity in human THP1 cells assessed as inhibition of LPS-stimulated TNFalpha production at 50 uM; format: functional; settings: THP-1

| IC50 [1] [µM] | Compound | other results |
| --- | --- | --- |
| 7.9 | Nc1ncc(Cl)nc1CNC(=S)Nc1ccccc1 | Ratio IC50 [2]: 4 |
| > 12.5 | Nc1ncc(C2CC2)nc1CNC(=O)Nc1ccc2[nH]c(=O)oc2c1 | inhibition at 12.5 µM [3]: 45% |
| 42 | CCCc1cnc(N)c(CN/C(=N\C#N)Nc2ccc3[nH]c(=O)oc3c2)n1 |  |
| 8.8 | Nc1ncc(C2CC2)nc1CN/C(=N\C(=O)c1ccc(Cl)cc1)Nc1ccc2[nH]c(=O)oc2c1 |  |
|  | Nc1ncc(Cl)nc1CNc1nc2ccccc2s1 | inhibition [4]: 36% |
| 3.9 | Cc1ccc(C(=O)/N=C(\NCc2nc(C3CC3)cnc2N)Nc2ccc3[nH]c(=O)oc3c2)cc1 |  |
| > 50 | CO/N=C(\NCc1nc(Cl)cnc1N)Nc1ccc(NC(=O)OC(C)(C)C)cc1 | inhibition at 50 µM [5]: 40% |
|  | Nc1ncc(Cl)nc1-c1nc(N2CCc3ccccc32)no1 | inhibition [4]: 20% |
| 10.2 | CC(C)(C)OC(=O)Nc1ccc(N/C(=N/C#N)NCc2nc(C3CC3)cnc2N)cc1 |  |
| 13 | CCOC(=O)/N=C(\NCc1nc(C2CC2)cnc1N)Nc1ccc2[nH]c(=O)oc2c1 |  |
| > 12.5 | CCCc1cnc(N)c(CNC(=O)Nc2ccc3[nH]c(=O)oc3c2)n1 | inhibition at 12.5 µM [3]: 34% |
